According to ChEMBL document CHEMBL1155006, “Anti-retroviral and cytostatic activity of 2',3'-dideoxyribonucleoside 3'-disulfides” (Bioorg Med Chem, 2008):

Legend:
[1] = Chemical stability assessed as half life in presence of dithiothreitol; assay type: physicochemical
[2] = Cytotoxicity against human Molt4/C8; assay type: functional, cell-based; settings: MOLT-4
[3] = test system: Moloney murine sarcoma virus; assay: Inhibition of murine sarcoma virus-induced transformation of mouse embryo fibroblast C3H/3T3 cells after 6 days; settings: C3H/3T3, 144 h
[4] = test system: Human immunodeficiency virus 2; assay: Antiviral activity against HIV2 ROD in CEM/0 cells assessed as inhibition of virus-induced cytopathogenicity; assay type: functional, organism-based; settings: Human immunodeficiency virus 2, ROD, CCRF-CEM
[5] = test system: Human immunodeficiency virus 2; assay: Antiviral activity against HIV2 ROD in TK1 deficient human CEM cells assessed as inhibition of virus-induced cytopathogenicity; assay type: functional, organism-based; settings: Human immunodeficiency virus 2, ROD, CCRF-CEM
[6] = test system: Human immunodeficiency virus 1; assay: Antiviral activity against HIV1 3B in CEM/0 cells assessed as inhibition of virus-induced cytopathogenicity; assay type: functional, organism-based; settings: Human immunodeficiency virus 1, 3B, CCRF-CEM
[7] = Cytotoxicity against human CEM/0 cells; assay type: cell-based, CCRF-CEM
[8] = Chemical stability assessed as half life at pH 7.2 in methanol-water mixture; assay type: physicochemical
[9] = biological target: T1, Thymidine kinase, cytosolic (Homo sapiens, UniProt P04183); assay: Inhibition of recombinant TK1-mediated phosphorylation of [CH3-3H]deoxythymidine in presence of dithiothreitol
T1 sequence (P04183 whole entry): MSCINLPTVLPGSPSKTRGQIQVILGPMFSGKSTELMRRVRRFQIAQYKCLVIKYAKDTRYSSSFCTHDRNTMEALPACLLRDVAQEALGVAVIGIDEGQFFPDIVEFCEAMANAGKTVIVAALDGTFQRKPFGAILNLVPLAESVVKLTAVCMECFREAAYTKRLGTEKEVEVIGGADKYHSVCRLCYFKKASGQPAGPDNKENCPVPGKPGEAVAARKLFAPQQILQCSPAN

[10] = biological target: T1, Thymidine kinase, cytosolic; assay: Inhibition of recombinant TK1-mediated phosphorylation of [CH3-3H]deoxythymidine
[11] = test system: Human immunodeficiency virus 1; assay: Antiviral activity against HIV1 in CEM cells assessed as reduction of viral replication at 5 to 10 uM; assay type: functional, CCRF-CEM; set-up: scale not given: the % may be the effect or the level left
[12] = Cytotoxicity against human MT4 cells; assay type: cell-based
[13] = test system: Human immunodeficiency virus 1; assay: Antiviral activity against HIV1 in human MT4 cells; assay type: functional, organism-based; settings: Human immunodeficiency virus 1, MT4

| half-life [1] [min] | EC50 [4] [µM] | EC50 [5] [µM] | EC50 [6] [µM] | half-life [8] [min] | IC50 [9] [µM] | IC50 [10] [µM] | EC50 [13] [µM] | Compound | IC50 [2] [µM] | EC50 [3] [µM] | CC50 [7] [µM] | Activity [11] [%] | CC50 [12] [µM] |
| --- | --- | --- | --- | --- | --- | --- | --- | --- | --- | --- | --- | --- | --- |
| < 480 | 12 | > 50 | 12 | < 5 | 333 | 73 | – | CSS[C@H]1C[C@H](n2cc(C)c(=O)[nH]c2=O)O[C@@H]1CO | 66 | 8.3 | 102 | 50 | – |
| < 90 | 17.5 | 22.5 | 20 | < 5 | 365 | 13 | – | Cc1cn([C@H]2C[C@H](SSC(Cl)(Cl)Cl)[C@@H](CO)O2)c(=O)[nH]c1=O | 55 | > 20 | 103 | – | – |
| < 10 | 7.3 | ≥ 10 | 8 | < 5 | – | – | – | Cc1cn([C@H]2C[C@H](SSc3ccc([N+](=O)[O-])cc3)[C@@H](CO)O2)c(=O)[nH]c1=O | 29 | 0.89 | 23 | – | – |
| – | ≥ 50 | – | ≥ 50 | – | – | – | – | CSS[C@H]1C[C@H](n2cc(Br)c(=O)[nH]c2=O)O[C@@H]1CO | – | – | 103 | – | – |
| < 480 | 15 | > 50 | 12.5 | < 5 | – | – | – | C=CCSS[C@H]1C[C@H](n2cc(C)c(=O)[nH]c2=O)O[C@@H]1CO | 34 | 2.2 | 53 | – | – |
| < 480 | 14 | > 50 | 13.5 | < 5 | 405 | 18 | – | Cc1cn([C@H]2C[C@H](SSCCO)[C@@H](CO)O2)c(=O)[nH]c1=O | 128 | 5.9 | 347 | – | – |
| < 480 | 27.5 | 150 | 20 | < 5 | 418 | 10 | – | Cc1cn([C@H]2C[C@H](SSCCN)[C@@H](CO)O2)c(=O)[nH]c1=O | 163 | 63 | 437 | – | – |
| < 10 | > 10 | > 10 | 10 | < 5 | – | – | – | Cc1cn([C@H]2C[C@H](SSc3ccccc3[N+](=O)[O-])[C@@H](CO)O2)c(=O)[nH]c1=O | 31 | 1.1 | 18.5 | – | – |
| < 480 | > 10 | > 10 | 8 | < 5 | – | – | – | CCCCSS[C@H]1C[C@H](n2cc(C)c(=O)[nH]c2=O)O[C@@H]1CO | 28 | 1 | 23.3 | – | – |
| < 480 | 6.5 | > 10 | 20 | < 5 | – | – | – | CCCCCCSS[C@H]1C[C@H](n2cc(C)c(=O)[nH]c2=O)O[C@@H]1CO | 27 | – | 39 | – | – |

More lines, now with the values behind:

| Compound | half-life [1] [min] | EC50 [4] [µM] | EC50 [5] [µM] | EC50 [6] [µM] | half-life [8] [min] | IC50 [9] [µM] | IC50 [10] [µM] | EC50 [13] [µM] | IC50 [2] [µM] | EC50 [3] [µM] | CC50 [7] [µM] | Activity [11] [%] | CC50 [12] [µM] |
| --- | --- | --- | --- | --- | --- | --- | --- | --- | --- | --- | --- | --- | --- |
| O=c1nc(O)ccn1[C@H]1C[C@H](SS[C@H]2C[C@H](n3ccc(O)nc3=O)O[C@@H]2CO)[C@@H](CO)O1 | – | > 250 | – | > 250 | – | – | – | – | – | – | ≥ 250 | – | – |
| Nc1ccn([C@H]2C[C@H](SS[C@H]3C[C@H](n4ccc(N)nc4=O)O[C@@H]3CO)[C@@H](CO)O2)c(=O)n1 | – | 65 | – | 73 | – | – | – | – | – | – | 216 | – | – |
| CCCCCCCCSS[C@H]1C[C@H](n2cc(C)c(=O)[nH]c2=O)O[C@@H]1CO | < 480 | 4.5 | > 10 | 20 | < 5 | – | – | – | 26 | – | 21 | – | – |
| CSS[C@H]1C[C@H](n2ccc(=O)[nH]c2=O)O[C@@H]1CO | – | ≥ 50 | – | > 50 | – | – | – | – | – | – | 170 | – | – |
| CSS[C@H]1C[C@H](n2ccc(N)nc2=O)O[C@@H]1CO | – | 14 | 45 | 10 | < 5 | – | – | – | 149 | 48 | 111 | – | – |
| O=c1[nH]c(=O)n([C@H]2C[C@H](SS[C@H]3C[C@H](n4cc(Br)c(=O)[nH]c4=O)O[C@@H]3CO)[C@@H](CO)O2)cc1Br | – | ≥ 250 | – | 127 | – | – | – | – | – | – | > 250 | – | – |
| Cc1cn([C@H]2C[C@H](SSCCCCCCO)[C@@H](CO)O2)c(=O)[nH]c1=O | < 480 | 15 | > 50 | 15 | < 5 | – | – | – | 42 | – | 52 | – | – |
| Cc1cn([C@H]2C[C@H](SS[C@H]3C[C@H](n4cc(C)c(O)nc4=O)O[C@@H]3CO)[C@@H](CO)O2)c(=O)nc1O | – | – | – | – | – | – | – | 16 | – | – | – | – | 34 |
| Nc1ccn(C2C[C@H](S)[C@@H](CO)O2)c(=O)n1 (single isomer, unassigned) | – | – | – | – | – | – | – | 20 | – | – | – | – | – |
| Nc1ncnc2c1ncn2CCOCP(=O)(O)O [ADEFOVIR] | – | – | – | – | – | – | – | – | – | 0.53 | – | – | – |
| C[C@H](Cn1cnc2c(N)ncnc21)OCP(=O)(O)O [TENOFOVIR ANHYDROUS] | – | – | – | 5.5 | – | – | – | – | – | 0.23 | – | – | – |
